Patent US7071217B2, “Substituted oxindole derivatives as tyrosine kinase inhibitors” (SmithKline Beecham Corporation, priority 2000, dated 2006)

Target: T1, TrkA (Homo sapiens, UniProt P04629)
T1 construct: The enzyme is a GST-fusion of the intracellular domain expressed in SF9 cells; purchased Regeneron; host or cells: SF9 cells
Assay: TrkA tyrosine kinase substrate phosphorylation assay (Src peptide, 33P-ATP, p81 filter plates)
Assay type: biochemical
Conditions: GST-fusion of TrkA intracellular domain; 20-40 nM TrkA, 30 uM ATP, 50 uM Src peptide, RT 120 min
Description: The compounds of the present invention have valuable pharmacologic properties. Different compounds from this class are particularly effective at inhibiting the trkA kinase enzyme at concentrations which range from 0.0001 to 1 μM and additionally show specificity relative to other kinases. Substrate phosphorylation assays were carried out as follows:
Screening format: Tyrosine kinase activity is being measured using a synthetic peptide substrate. The enzyme is a GST-fusion of the intracellular domain expressed in SF9 cells. The enzyme is expressed and purified by Regeneron. The enzyme is preincubated with cold ATP and Mg to allow autophosphorylation prior to running the screen. This increases the initial rate of catalysis approximately 3 fold. The assay is performed in 96 well microtitre plates, and reaction products are detected following filtration through millipore p81 phosphocellulose plates. Assay Conditions

T1 sequence (P04629 440-796 limits assumed, species assumed): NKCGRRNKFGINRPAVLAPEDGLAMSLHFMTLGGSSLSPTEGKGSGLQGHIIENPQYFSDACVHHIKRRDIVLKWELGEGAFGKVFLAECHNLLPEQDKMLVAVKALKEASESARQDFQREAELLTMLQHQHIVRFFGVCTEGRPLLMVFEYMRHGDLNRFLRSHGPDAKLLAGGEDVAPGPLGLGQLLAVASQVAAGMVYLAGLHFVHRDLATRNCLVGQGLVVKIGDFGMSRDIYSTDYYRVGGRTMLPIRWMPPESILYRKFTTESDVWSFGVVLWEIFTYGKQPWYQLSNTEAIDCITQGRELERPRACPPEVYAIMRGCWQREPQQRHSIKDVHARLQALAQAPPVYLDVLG

Work on `CNS(=O)(=O)Cc1ccc(N/N=C2\C(=O)Nc3cc(C(C)C)c(O)c(Cl)c32)cc1` [Example 1, {4-[(2Z)-2-(4-chloro-5-hydroxy-6-isopropyl-2-oxo-1,2-dihydro-3H-indol-3-ylidene)hydrazino]phenyl}-N-methylmethanesulfonamide] yielded an IC50 of less than 10 nM.

`CS(=O)(=O)Nc1ccc(N/C=C2\C(=O)Nc3ccccc32)cc1` [Example 2, N-(4-{[(Z)-(2-oxo-1,2-dihydro-3H-indol-3-ylidene)methyl]amino}phenyl)methanesulfonamide] showed an IC50 of less than 10 nM.

`O=C1Nc2ccccc2/C1=C/Nc1ccc(S(=O)(=O)Nc2ccccn2)cc1` [Example 3, 4-{[(Z)-(2-oxo-1,2-dihydro-3H-indol-3-ylidene)methyl]amino}-N-(2-pyridinyl)benzenesulfonamide] showed an IC50 of 10 to 100 nM.

`Cc1nnc(NS(=O)(=O)c2ccc(N/C=C3\C(=O)Nc4ccccc43)cc2)s1` [Example 4, N-(5-methyl-1,3,4-thiadiazol-2-yl)-4-{[(Z)-(2-oxo-1,2-dihydro-3H-indol-3-ylidene)methyl]amino}benzenesulfonamide] gave an IC50 of 10 to 100 nM.

`NS(=O)(=O)c1cccc(N/C=C2\C(=O)Nc3ccccc32)c1` [Example 5, 3-{[(Z)-(2-oxo-1,2-dihydro-3H-indol-3-ylidene)methyl]amino}benzenesulfonamide] was tested, and the IC50 was 10 to 100 nM.
